Reference: ChEMBL document CHEMBL2390892, “Synthesis and cytotoxic activity on human cancer cells of carbamate derivatives of 4β-(1,2,3-triazol-1-yl)podophyllotoxin” (Eur J Med Chem, 2013)
Activity calls are given as the source filed them. No cut-off for these calls is given here.

Assays:
[1] = biological target: DNA topoisomerase 2-alpha (Homo sapiens) (UniProt P11388); test: Inhibition of DNA topoisomerase-2 (unknown origin) assessed as inhibition of pBR322 DNA relaxation at 100 uM by agarose gel electrophoresis
Chain of DNA topoisomerase 2-alpha (Homo sapiens) (P11388 whole entry): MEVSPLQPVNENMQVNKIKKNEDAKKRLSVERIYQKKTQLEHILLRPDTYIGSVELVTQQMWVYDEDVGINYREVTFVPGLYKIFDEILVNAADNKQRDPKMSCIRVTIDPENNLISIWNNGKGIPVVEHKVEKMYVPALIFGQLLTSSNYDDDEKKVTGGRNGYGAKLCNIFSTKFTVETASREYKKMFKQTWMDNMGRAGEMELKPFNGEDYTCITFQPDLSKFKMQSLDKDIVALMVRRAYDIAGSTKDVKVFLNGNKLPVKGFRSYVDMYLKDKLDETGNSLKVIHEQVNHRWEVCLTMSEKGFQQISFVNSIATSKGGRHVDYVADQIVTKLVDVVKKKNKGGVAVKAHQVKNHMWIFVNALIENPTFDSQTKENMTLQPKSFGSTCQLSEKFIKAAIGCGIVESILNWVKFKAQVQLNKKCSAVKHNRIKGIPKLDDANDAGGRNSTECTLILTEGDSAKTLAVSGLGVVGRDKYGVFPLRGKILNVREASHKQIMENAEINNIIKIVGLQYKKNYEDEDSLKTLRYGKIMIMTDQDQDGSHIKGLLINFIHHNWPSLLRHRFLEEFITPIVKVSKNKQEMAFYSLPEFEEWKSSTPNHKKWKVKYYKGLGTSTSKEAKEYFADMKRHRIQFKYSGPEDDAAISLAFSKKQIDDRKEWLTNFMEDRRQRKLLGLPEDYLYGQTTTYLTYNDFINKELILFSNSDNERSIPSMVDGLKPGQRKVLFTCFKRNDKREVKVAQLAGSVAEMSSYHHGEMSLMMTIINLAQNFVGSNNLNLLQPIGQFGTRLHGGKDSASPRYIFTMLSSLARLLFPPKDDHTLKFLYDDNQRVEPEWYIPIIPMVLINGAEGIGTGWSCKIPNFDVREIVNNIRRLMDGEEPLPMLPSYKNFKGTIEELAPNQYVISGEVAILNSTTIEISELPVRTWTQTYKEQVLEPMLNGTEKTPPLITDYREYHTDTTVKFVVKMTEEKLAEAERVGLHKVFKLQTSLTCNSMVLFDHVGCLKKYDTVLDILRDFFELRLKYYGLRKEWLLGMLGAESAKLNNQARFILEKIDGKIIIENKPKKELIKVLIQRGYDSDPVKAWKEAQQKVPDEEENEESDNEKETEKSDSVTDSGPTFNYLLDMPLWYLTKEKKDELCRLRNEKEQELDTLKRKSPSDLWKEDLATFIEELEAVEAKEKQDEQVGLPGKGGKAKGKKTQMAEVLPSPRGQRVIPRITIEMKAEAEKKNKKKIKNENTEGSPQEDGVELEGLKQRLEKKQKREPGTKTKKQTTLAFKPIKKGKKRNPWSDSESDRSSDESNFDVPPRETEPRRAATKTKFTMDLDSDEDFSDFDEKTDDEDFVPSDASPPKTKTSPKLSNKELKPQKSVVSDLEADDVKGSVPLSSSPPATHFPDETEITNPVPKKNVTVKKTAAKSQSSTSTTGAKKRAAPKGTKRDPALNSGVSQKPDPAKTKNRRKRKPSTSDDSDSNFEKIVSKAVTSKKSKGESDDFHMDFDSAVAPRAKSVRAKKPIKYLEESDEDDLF

[2] = tested on: HCT-8; test: Cytotoxicity against human HCT8 cells assessed as growth inhibition after 48 hrs by MTT assay; assay type: functional, cell-based; conditions: HCT-8, 48 h
[3] = tested on: A549; test: Cytotoxicity against human A549 cells assessed as growth inhibition after 48 hrs by MTT assay; assay type: functional, cell-based; conditions: A549, 48 h
[4] = tested on: HL-60; test: Cytotoxicity against human HL60 cells assessed as growth inhibition after 48 hrs by CCK-8 assay; assay type: functional, cell-based; conditions: HL-60, 48 h
[5] = tested on: HeLa; test: Cytotoxicity against human HeLa cells assessed as growth inhibition after 48 hrs by MTT assay; assay type: functional, cell-based
[6] = tested on: A549; test: Induction of apoptosis in human A549 cells assessed as cell shrinkage after 48 hrs by confocal microscopic analysis; assay type: functional, cell-based
[7] = tested on: A549; test: Cell cycle arrest in human A549 cells assessed as accumulation at G2/M phase at 5 uM after 48 hrs by propidium iodide staining-based FACS flow cytometric analysis (reference value: 16.4%); assay type: functional
[8] = tested on: A549; test: Cell cycle arrest in human A549 cells assessed as accumulation at G2/M phase at 5 uM after 24 hrs by propidium iodide staining-based FACS flow cytometric analysis (reference value: 16.4%); assay type: functional
[9] = tested on: A549; test: Cell cycle arrest in human A549 cells assessed as accumulation at S phase at 5 uM after 48 hrs by propidium iodide staining-based FACS flow cytometric analysis (reference value: 25.5%); assay type: functional
[10] = tested on: A549; test: Cell cycle arrest in human A549 cells assessed as accumulation at S phase at 5 uM after 24 hrs by propidium iodide staining-based FACS flow cytometric analysis (reference value: 25.5%); assay type: functional
[11] = tested on: A549; test: Cell cycle arrest in human A549 cells assessed as accumulation at G1 phase at 5 uM after 48 hrs by propidium iodide staining-based FACS flow cytometric analysis (reference value: 58.1%); assay type: functional
[12] = tested on: A549; test: Cell cycle arrest in human A549 cells assessed as accumulation at G1 phase at 5 uM after 24 hrs by propidium iodide staining-based FACS flow cytometric analysis (reference value: 58.1%); assay type: functional
[13] = tested on: A549; test: Cell cycle arrest in human A549 cells assessed as accumulation at sub-G1 phase at 5 uM after 48 hrs by propidium iodide staining-based FACS flow cytometric analysis (reference value: 1.5%); assay type: functional
[14] = tested on: A549; test: Cell cycle arrest in human A549 cells assessed as accumulation at sub-G1 phase at 5 uM after 24 hrs by propidium iodide staining-based FACS flow cytometric analysis (reference value: 1.5%); assay type: functional
[15] = tested on: A549; test: Induction of apoptosis in human A549 cells assessed as nuclear condensation after 48 hrs by DAPI staining-based confocal microscopic analysis; assay type: functional, cell-based
[16] = tested on: A549; test: Induction of apoptosis in human A549 cells assessed as nuclear DNA fragmentation after 48 hrs by DAPI staining-based confocal microscopic analysis; assay type: functional, cell-based
[17] = tested on: A549; test: Induction of apoptosis in human A549 cells assessed as appearance of round, short and dense microtubule networks after 48 hrs by confocal microscopic analysis; assay type: functional, cell-based
[18] = Solubility of the compound in water; assay type: physicochemical; conditions: buffer

SMILES	IC50 [2]	IC50 [3]	IC50 [4]	IC50 [5]	further results
COc1cc([C@@H]2c3cc4c(cc3[C@@H](O[C@@H]3O[C@@H]5CO[C@@H](C)O[C@H]5[C@H](O)[C@H]3O)[C@H]3COC(=O)[C@H]23)OCO4)cc(OC)c1O [ETOPOSIDE]	7.06 µM	3.2 µM	1.15 µM	2.91 µM	inhibition [1]: Active
COc1cc([C@@H]2c3cc4c(cc3[C@@H](n3cc(COC(=O)N5CCN(C6CCCC6)CC5)nn3)[C@H]3COC(=O)[C@H]23)OCO4)cc(OC)c1OC	0.35 µM	8.7 µM	< 0.01 µM	< 0.01 µM	–
COc1cc([C@@H]2c3cc4c(cc3[C@@H](n3cc(COC(=O)NC5CCCC5)nn3)[C@H]3COC(=O)[C@H]23)OCO4)cc(OC)c1O	0.05 µM	0.14 µM	< 0.01 µM	0.51 µM	inhibition [1]: Active; Activity [6]: Dose-dependent effect; Activity [7]: 22.2%; Activity [8]: 20.6%; Activity [9]: 55.1%; Activity [10]: 36.3%; Activity [11]: 22.7%; Activity [12]: 43.1%; Activity [13]: 26.8%; Activity [14]: 24.3%; Activity [15]: Dose-dependent effect; Activity [16]: Dose-dependent effect; Activity [17]: Dose-dependent effect
COc1cc([C@@H]2c3cc4c(cc3[C@@H](n3cc(COC(=O)N5CCN(c6ccc([N+](=O)[O-])cc6)CC5)nn3)[C@H]3COC(=O)[C@H]23)OCO4)cc(OC)c1OC	31.3 µM	56.6 µM	0.625 µM	6.48 µM	–
COc1cc([C@@H]2c3cc4c(cc3[C@@H](n3cc(COC(=O)N[C@@H](CCSC)C(=O)N5CCN(c6ccc([N+](=O)[O-])cc6)CC5)nn3)[C@H]3COC(=O)[C@H]23)OCO4)cc(OC)c1O	40.8 µM	45.6 µM	15.7 µM	10.3 µM	solubility [18]: soluble
COc1cc([C@@H]2c3cc4c(cc3[C@H](O)[C@H]3COC(=O)[C@H]23)OCO4)cc(OC)c1OC [PODOFILOX]	–	–	–	–	solubility [18]: soluble
COc1cc([C@@H]2c3cc4c(cc3[C@@H](n3cc(COC(=O)NC5CCCC5)nn3)[C@H]3COC(=O)[C@H]23)OCO4)cc(OC)c1OC	14.9 µM	14.8 µM	0.375 µM	1.16 µM	–
COc1cc([C@@H]2c3cc4c(cc3[C@@H](n3cc(COC(=O)N5CCOCC5)nn3)[C@H]3COC(=O)[C@H]23)OCO4)cc(OC)c1OC	2.05 µM	23.3 µM	0.629 µM	35.7 µM	–
COc1cc([C@@H]2c3cc4c(cc3[C@@H](n3cc(CO)nn3)[C@H]3COC(=O)[C@H]23)OCO4)cc(OC)c1OC	2.76 µM	22.1 µM	0.298 µM	0.92 µM	–
CCCNC(=O)OCc1cn([C@@H]2c3cc4c(cc3[C@@H](c3cc(OC)c(O)c(OC)c3)[C@H]3C(=O)OC[C@@H]32)OCO4)nn1	16.2 µM	23 µM	0.183 µM	6.91 µM	–
COc1cc([C@@H]2c3cc4c(cc3[C@@H](n3cc(COC(=O)N5CCOCC5)nn3)[C@H]3COC(=O)[C@H]23)OCO4)cc(OC)c1O	0.37 µM	1.46 µM	0.045 µM	0.03 µM	–
CCCNC(=O)OCc1cn([C@@H]2c3cc4c(cc3[C@@H](c3cc(OC)c(OC)c(OC)c3)[C@H]3C(=O)OC[C@@H]32)OCO4)nn1	6.29 µM	46.8 µM	2.77 µM	7.42 µM	–
COc1cc([C@@H]2c3cc4c(cc3[C@@H](n3cc(COC(=O)N5CCN(c6ccc([N+](=O)[O-])cc6)CC5)nn3)[C@H]3COC(=O)[C@H]23)OCO4)cc(OC)c1O	6.15 µM	5.58 µM	0.32 µM	3.5 µM	solubility [18]: soluble
COc1cc([C@@H]2c3cc4c(cc3[C@@H](n3cc(COC(=O)N5CCN(c6ccc(F)cc6)CC5)nn3)[C@H]3COC(=O)[C@H]23)OCO4)cc(OC)c1OC	1.47 µM	22.1 µM	< 0.01 µM	3.84 µM	–
